Here are results for 22 compounds from US8088801B2, “Aryloazol-2-yl cyanoethylamino compounds, method of making and method of using thereof” (Merial Limited, priority 2007, dated 2012).

The test system of test [1] is Haemonchus contortus. As to the kind of experiment: Method B: Haemonchus contortus in vivo in Mongolian gerbil, oral gavage. The settings on record: 72 h, Mongolian gerbils, read-out: reduction in nematode infestation. Also on record: species or system Mongolian gerbil (Meriones unguiculatus). How it is done:
Method B: Screening Method to Test Activity of Compounds Against Haemonchus contortus In Vivo in Mongolian Gerbil (Meriones unguiculatus).
Mongolian gerbils, at least five weeks old, were immunosuppressed and artificially infected with ca. 1000 ensheathed Haemonchus contortus third instar larvae. Six days after infection, the Mongolian gerbils were treated by oral gavage with the test compounds, dissolved in a mixture of 2 parts DMSO and 1 part polyethylene glycol (PEG400), at doses of 100 mg/kg and dissolved in pure polyethylene glycol (PEG400) at doses of 10 and 1 mg/kg. Jirds treated only with the placebo (2 parts DMSO and 1 part PEG400 or pure PEG400) served as controls. On day 9 (3 days after treatment) the jirds were euthanized and necropsied for recovery of parasites from the stomach. Efficacy was calculated as the average % reduction in the number of worms in each test group compared with the average number of worms from the control group. […] Compound numbers 1.001, 1.008, 1.012, 1.013 and 1.014 provided at least 95% reduction in nematode infestation in Mongolian gerbils treated by oral gavage with test article at a dose of 100 mg/kg. Compound numbers 1.012, 1.033, 1.064, 2.008, 2.037, 2.038, 2.040, 2.041, 3.001 provided at least 95% reduction in nematode infestation at a dose of 10 mg/kg. Compound numbers 1.094, 2.048, 3.001, 3.007 and 3.009, provided at least 95% reduction in nematode infestation at a dose of 1 mg/kg. Compound numbers 3.005, 3.006, 3.011, 3.012, 3.017 and 3.019, provided at least 95% reduction in nematode infestation at a dose of 0.5 mg/kg.

Test [2] deals with Haemonchus contortus. As to the kind of experiment: Method A: screening against Haemonchus contortus, L1 larvae in microtitre plate. The settings on record: 96 h, 4 days assessment, read-out: motility inhibition; for inhibition at 0.01 ppm: test concentration 0.01 ppm; for inhibition at 0.04 ppm: test concentration 0.04 ppm; for inhibition at 0.15 ppm: test concentration 0.15 ppm; for inhibition at 0.0025 ppm: test concentration 0.0025 ppm. The source says: Method A: Screening Method to Test Activity of Compounds Against Haemonchus contortus.

For test [3], the system named is Trichostrongylus colubriformis. Nature of the test: Method D: screening against Trichostrongylus colubriformis, L1 larvae in microtitre plate. The settings on record: 96 h, 4 days assessment, read-out: motility inhibition; for inhibition at 0.04 ppm: test concentration 0.04 ppm; for inhibition at 0.01 ppm: test concentration 0.01 ppm; for inhibition at 0.15 ppm: test concentration 0.15 ppm. How it is done:
Method D: Screening Method to Test Activity of Compounds Against Trichostrongylus colubriformis.
Twenty L1 Trichostrongylus colubriformis larvae were added to wells of a microtitre plate containing a nutrient medium and the test compound in DMSO. The microtitre plate was then held at 27° C. where the L1 larvae were allowed to develop. An analysis was conducted at 4 days to determine successful development to the L3 stage. Larvae exposed to DMSO and no test compound served as controls. Compounds numbers 1.008, 1.014, 1.042, 1.047, 1.048, 1.073, 2.001, 2.003 and 2.020, gave at least 90% motility inhibition at a test concentration of 0.15 ppm at the 4 days assessment. Compounds numbers 1.001, 1.003, 1.007, 1.011, 1.037, 1.038, 1.043, 1.056, 1.066, 1.070, 1.071, 2.012 and 2.016, gave at least 90% motility inhibition at a test concentration of 0.04 ppm at the 4 days assessment. Compounds numbers 1.012, 1.020, 1.021, 1.033, 1.034, 1.039, 1.064, 1.065, 2.008, 2.009 and 3.005 gave at least 90% motility inhibition at a test concentration of 0.01 ppm at the 4 days assessment. Compounds numbers 1.094, 2.040, 2.048, 2.049, 3.006, 3.009, 3.011 and 3.012 gave at least 90% motility inhibition at a test concentration of 0.0025 ppm at the 4 days assessment.

Each structure is given as a SMILES string.

As for `CC(C#N)(Cn1nc2ccc(Cl)cc2n1)NC(=O)c1ccc(OC(F)(F)F)cc1` (centres unmarked) [Compound 1.001, N-[2-(5-Chloro-2H-benzotriazol-2-yl)-1-cyano-1-methylethyl]-4-trifluoromethoxybenzamide], the inhibition in vivo at 100 mg/kg in test [1] (dose 100 mg/kg, necropsy 3 days after treatment) was not below 95%. Further, in test [2], the inhibition at 0.01 ppm is not below 90%. Besides, in test [3], the inhibition at 0.04 ppm was not below 90%.
Consider `CC(C#N)(Cn1nc2ccc(Br)cc2n1)NC(=O)c1ccc(OC(F)(F)F)cc1` (centres unmarked) [Compound 1.020, N-[2-(5-Bromo-2H-benzotriazol-2-yl)-1-cyano-1-methylethyl]-4-trifluoromethoxybenzamide], for which the inhibition at 0.01 ppm in test [2] and in test [3] was not below 90% throughout.
With `CC(C#N)(Cn1nc2cc(Cl)cc(C(F)(F)F)c2n1)NC(=O)c1ccc(OC(F)(F)F)cc1` (centres unmarked) [Compound 1.037, N-[2-(6-Chloro-4-trifluoromethyl-2H-benzotriazol-2-yl)-1-cyano-1-methylethyl]-4-trifluoromethoxybenzamide], in test [2], the inhibition at 0.01 ppm was not below 90%. Further, the inhibition at 0.04 ppm in test [3] is not below 90%.
Regarding `Cc1cc(Cl)cc2nn(CC(C)(C#N)NC(=O)c3ccc(Oc4ccccc4)cc3)nc12` (centres unmarked) [Compound 1.039, N-[2-(6-Chloro-4-methyl-2H-benzotriazol-2-yl)-1-cyano-1-methylethyl]-4-phenoxybenzamide], the inhibition at 0.01 ppm in test [2] and in test [3] was not below 90% each time.
`CC(C#N)(Cn1nc2cc(Cl)cc(C(F)(F)F)c2n1)NC(=O)c1ccc(Oc2ccccc2)cc1` (centres unmarked) [Compound 1.042, N-[2-(6-Chloro-4-trifluoromethyl-2H-benzotriazol-2-yl)-1-cyano-1-methylethyl]-4-phenoxybenzamide]: in test [2], the inhibition at 0.04 ppm is not below 90%. Besides, in test [3], the inhibition at 0.15 ppm is not below 90%.
For `CC(C#N)(Cn1nc2cccc(Cl)c2n1)NC(=O)c1ccc(OC(F)(F)F)cc1` (centres unmarked) [Compound 1.043, N-[2-(4-Chloro-2H-benzotriazol-2-yl)-1-cyano-1-methylethyl]-4-trifluoromethoxybenzamide], the inhibition at 0.04 ppm in test [2] and in test [3] was not below 90% in each case.
Turning to `CCC(C#N)(Cn1nc2ccc(Cl)cc2n1)NC(=O)c1ccc(OC(F)(F)F)cc1` (centres unmarked) [Compound 1.047, N-{1-[(5-Chloro-2H-benzotriazol-2-yl)methyl]-1-cyanopropyl}-4-trifluoromethoxybenzamide], the inhibition at 0.04 ppm in test [2] is not below 90%. In addition, the inhibition at 0.15 ppm in test [3] is not below 90%.
With `CC(C#N)(Cn1nc2cc(C#N)cc(C(F)(F)F)c2n1)NC(=O)c1ccc(OC(F)(F)F)cc1` (centres unmarked) [Compound 1.056, N-[1-Cyano-2-(6-cyano-4-trifluoromethyl-2H-benzotriazol-2-yl)-1-methylethyl]-4-trifluoromethoxybenzamide], the inhibition at 0.04 ppm in test [2] and in test [3] was not below 90% in each case.
As for `COc1cc(Cl)c2nn(CC(C)(C#N)NC(=O)c3ccc(OC(F)(F)F)cc3)nc2c1` (centres unmarked) [Compound 1.070, N-[2-(4-Chloro-6-methoxy-2H-benzotriazol-2-yl)-1-cyano-1-methylethyl]-4-trifluoromethoxybenzamide], the inhibition at 0.04 ppm in test [2] and in test [3] was not below 90% throughout.
`CC(C#N)(Cn1cc2cc([N+](=O)[O-])ccc2n1)NC(=O)c1ccc(OC(F)(F)F)cc1` (centres unmarked) [Compound 2.001, N-[1-Cyano-1-methyl-2-(5-nitro-2H-indazol-2-yl)ethyl]-4-trifluoromethoxybenzamide]: the inhibition at 0.04 ppm in test [2] is not below 90%. Also, the inhibition at 0.15 ppm in test [3] is not below 90%.
On to `CC(C#N)(Cn1cc2cc(Cl)cc(Cl)c2n1)NC(=O)c1ccc(OC(F)(F)F)cc1` (centres unmarked) [Compound 2.003, N-[1-Cyano-2-(5,7-dichloro-2H-indazol-2-yl)-1-methylethyl]-4-trifluoromethoxybenzamide], for which the inhibition at 0.04 ppm in test [2] was not below 90%. Also, the inhibition at 0.15 ppm in test [3] was not below 90%.
Regarding `COc1c2cc(Cl)ccc2nn1CC(C)(C#N)NC(=O)c1ccc(OC(F)(F)F)cc1` (centres unmarked) [Compound 2.012, N-[2-(5-Chloro-3-methoxy-2H-indazol-2-yl)-1-cyano-1-methylethyl]-4-trifluoromethoxybenzamide], the inhibition at 0.01 ppm in test [2] is not below 90%. The inhibition at 0.04 ppm in test [3] is not below 90%.
Consider `COc1c2ccccc2nn1CC(C)(C#N)NC(=O)c1ccc(OC(F)(F)F)cc1` (centres unmarked) [Compound 2.016, N-[1-Cyano-2-(3-methoxy-2H-indazol-2-yl)-1-methylethyl]-4-trifluoromethoxybenzamide], for which the inhibition at 0.04 ppm in test [2] and in test [3] was not below 90% throughout.
On to `COc1c2cc(Cl)cc(Cl)c2nn1CC(C)(C#N)NC(=O)c1ccc(OC(F)(F)F)cc1` (centres unmarked) [Compound 2.020, N-[1-Cyano-2-(5,7-dichloro-3-methoxy-2H-indazol-2-yl)-1-methylethyl]-4-trifluoromethoxybenzamide], for which the inhibition at 0.15 ppm in test [2] and in test [3] was not below 90% in each case.
Take `CC(C#N)(Cn1cc2ccc(Cl)cc2n1)NC(=O)c1ccc(OC(F)(F)F)cc1` (centres unmarked) [Compound 2.037, N-[2-(6-Chloro-2H-indazol-2-yl)-1-cyano-1-methylethyl]-4-trifluoromethoxybenzamide]: in test [1], the inhibition in vivo at 10 mg/kg is not below 95%. Also, in test [2], the inhibition at 0.0025 ppm was not below 90%.
In the case of `CC(C#N)(Cn1cc2ccc(Cl)c(Cl)c2n1)NC(=O)c1ccc(OC(F)(F)F)cc1` (centres unmarked) [Compound 2.045, N-[1-Cyano-2-(6,7-dichloro-2H-indazol-2-yl)-1-methylethyl]-4-trifluoromethoxybenzamide], in test [2], the inhibition at 0.0025 ppm is not below 90%.
As for `Cc1c2ccc(Cl)cc2nn1CC(C)(C#N)NC(=O)c1ccc(OC(F)(F)F)cc1` (centres unmarked) [Compound 2.050, N-[2-(6-Chloro-3-methyl-2H-indazol-2-yl)-1-cyano-1-methylethyl]-4-trifluoromethoxybenzamide], the inhibition at 0.0025 ppm in test [2] is not below 90%.
Turning to `COc1c2ncc(Cl)cc2nn1CC(C)(C#N)NC(=O)c1ccc(OC(F)(F)F)cc1` (centres unmarked) [Compound 3.001, N-[2-(6-Chloro-3-methoxy-2H-pyrazolo[4,3-b]pyridin-2-yl)-1-cyano-1-methylethyl]-4-trifluoromethoxybenzamide], in test [1], the inhibition in vivo at 1 mg/kg was not below 95% and the inhibition in vivo at 10 mg/kg was not below 95%. For the same compound, the inhibition at 0.0025 ppm in test [2] is not below 90%.
With `Cc1c(Br)cnc2nn(CC(C)(C#N)NC(=O)c3ccc(OC(F)(F)F)cc3)nc12` (centres unmarked) [Compound 3.003, N-[2-(6-Bromo-7-methyl-2H-[1,2,3]triazolo[4,5-b]pyridin-2-yl)-1-cyano-1-methylethyl]-4-trifluoromethoxybenzamide], the inhibition at 0.15 ppm in test [2] is not below 90%.
On to `COc1c2ncc(Br)c(C)c2nn1CC(C)(C#N)NC(=O)c1ccc(OC(F)(F)F)cc1` (centres unmarked) [Compound 3.007, N-[2-(6-Bromo-3-methoxy-7-methyl-2H-pyrazolo[4,3-b]pyridin-2-yl)-1-cyano-1-methylethyl]-4-trifluoromethoxybenzamide], for which the inhibition in vivo at 1 mg/kg in test [1] was not below 95%. In addition, in test [2], the inhibition at 0.01 ppm was not below 90%.
For `COc1c2ncc(Cl)c(C)c2nn1CC(C)(C#N)NC(=O)c1ccc(OC(F)(F)F)cc1` (centres unmarked) [Compound 3.008, N-[2-(6-Chloro-3-methoxy-7-methyl-2H-pyrazolo[4,3-b]pyridin-2-yl)-1-cyano-1-methylethyl]-4-trifluoromethoxybenzamide], the inhibition at 0.01 ppm in test [2] is not below 90%.
Take `Cc1c(Cl)cnc2cn(CC(C)(C#N)NC(=O)c3ccc(OC(F)(F)F)cc3)nc12` (centres unmarked) [Compound 3.010, N-[2-(6-Chloro-7-methyl-2H-pyrazolo[4,3-b]pyridin-2-yl)-1-cyano-1-methylethyl]-4-trifluoromethoxybenzamide]: the inhibition at 0.04 ppm in test [2] is not below 90%.

The inhibition is the percentage by which the read-out fell short of the control.
